Values of other authors, collected in article PMC10247525 (Colloids and surfaces. B, Biointerfaces, 2023).
≈ marks a conversion by molar mass, not a printed value. Where “and” joins values, the source holds several entries; their conditions need not be identical. Equal values may be shown once.

Tests used:
[1] = cited from earlier work
[2] = cited from earlier work; remark: listed apart in the source
[3] = cited from earlier work; remark: listed apart in the source

SMILES | solubility in methanol [1] | solubility in water [2] | logP (octanol/water) [3]
O=c1[nH]cc(F)c(=O)[nH]1 [5-Fluorouracil] | 18 mg/mL (≈ 138 mM) | 12.5 mg/ml and 96 mM | 
COc1cccc2c1C(=O)c1c(O)c3c(c(O)c1C2=O)C[C@@](O)(C(=O)CO)C[C@@H]3O[C@H]1C[C@H](N)[C@H](O)[C@H](C)O1 [Doxorubicin] | sparingly | 52 mg/ml and 90 mM | 
CC(=O)O[C@H]1C(=O)[C@@]2(C)[C@H]([C@H](OC(=O)c3ccccc3)[C@]3(O)C[C@H](OC(=O)[C@H](O)[C@@H](NC(=O)c4ccccc4)c4ccccc4)C(C)=C1C3(C)C)[C@]1(OC(C)=O)CO[C@@H]1C[C@@H]2O [Paclitaxel] | 50 mg/mL (≈ 58.6 mM) | sparingly | 4
